US20250257064A1, “TRIFLUOROMETHYL-SUBSTITUTED SULFONAMIDE AS BCL-2-SELECTIVE INHIBITOR” (Chia Tai Tianqing Pharmaceutical Group Co., Ltd., priority 2018, published 2025)

Tests used:
[1] = In vitro stability in human liver microsomes; type: in vitro ADME; details: 1 μM
Method: (§1) Experimental Example 3: In Vitro Stability in Liver Microsome
(§2) 300 μL of the final incubation system contains 30 μL of liver microsomes (protein concentration: 5 mg/mL), 30 μL of NADPH+MgCl2, 3 μL of the test compound (in acetonitrile), and 237 μL of PBS buffer (pH 7.4), wherein the proportion of the organic solvent (acetonitrile) is 1% (volume ratio). Two duplicate samples were prepared for each specie (mouse, rat and human), and each sample was 0.3 mL. Each tube which was added with 270 μL of a mixed solution of substrate and enzyme, and NADPH, after being pre-incubated at 37° C. for 5 min, was added with 30 μL of NADPH+MgCl2 and mixed. Then 50 μL of the mixture was taken at 0 min, 15 min, 30 min and 60 min, and added with 300 μL of glacial acetonitrile containing an internal standard to terminate the reaction.
(§3) 50 μL of the incubated sample was added with 300 μL of glacial acetonitrile containing an internal standard (20 ng/mL diazepam) for precipitation, vortexed for 5 min, and centrifuged (13,000 rpm, 20° C.) for 10 min. 70 μL of supernatant was taken and diluted with 70 μL of ultrapure water. After being mixed well, 1 μL of the resulting sample was injected for analysis.

Pharmacokinetics in rats = type: in vivo; details: Sprague-Dawley, rat, plasma, po, SD rats, IG 5 mg/kg; for AUC(0-t): read-out: AUC(0-24 h); for MRT last: read-out: MRT(0-t)
Method: 4.1 Pharmacokinetics in Rats
SD rats weighing 180-220 g were randomly grouped with 3 rats in each group after 3-5 days of adaptive feeding, and intragastrically administered with compounds 1-1 and 8-1 at a dosage of 5 mg/kg.
The animals to be tested (SD rats) were fasted for 12 h before administration and fed 4 h after administration, and water was freely drunk before, after and during the experiment.
After intragastric administration, about 0.2 mL of blood was collected from the orbit at 0 min, 15 min, 30 min, 1 h, 2 h, 4 h, 6 h, 8 h, 10 h and 24 h, and after anticoagulation with EDTA-K2, blood samples were transferred to a centrifuge within 30 min, and centrifuged at 4000 rpm for 10 min at 4° C. to separate the plasma. All plasma samples were collected and immediately stored at −20° C. for testing.
50 μL of the plasma sample to be tested was added with 300 μL of acetonitrile solution containing an internal standard (20 mg/mL diazepam), shaken and mixed well for 5 min, and centrifuged at 13,000 rpm for 10 min. 75 μL of supernatant was taken and diluted with 75 μL of ultrapure water. After being mixed well, 2 μL of the resulting sample was taken for LC/MS/MS determination, and a chromatogram was recorded.
Oral exposure of the compounds disclosed herein was evaluated by in vivo pharmacokinetic experiments in rats.

BCL-2/BAK = target: T1, BCL-2/BAK (Homo sapiens, UniProt P10415); assay: Screening on inhibitory activity for BCL-2/BAK binding (Cisbio HTRF kit)
T1 construct: purchased Cisbio
T1 sequence (P10415 whole entry, species assumed): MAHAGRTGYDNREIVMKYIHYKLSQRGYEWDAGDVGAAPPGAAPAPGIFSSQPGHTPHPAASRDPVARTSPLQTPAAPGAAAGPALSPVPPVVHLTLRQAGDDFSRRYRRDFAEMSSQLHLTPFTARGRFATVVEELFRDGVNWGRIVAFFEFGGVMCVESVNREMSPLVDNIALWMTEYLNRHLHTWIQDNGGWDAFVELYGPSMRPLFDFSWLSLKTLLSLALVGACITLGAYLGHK
Outline: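 HTRF competition assay: Tag1-BCL-2 and Tag2-BAK working dilutions were 5 nM and 120 nM. Compound (200–0.0488 nM final, 4-fold, 7 points, duplicates) was incubated with the proteins for 15 min at 25 °C, then with Eu-cryptate/XL665 antibodies for ≥2 h at 25 °C. IC50 was derived from a four-parameter fit.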

[2] = system: human B-cell leukemia RS4;11 subcutaneous xenograft; assay: Pharmacodynamics in human B-cell leukemia RS4;11 subcutaneous xenograft model; type: in vivo, NOD/SCID mice; details: Day 17 after the end of administration
From the text: Experimental Example 5: Pharmacodynamics of Compounds in Human B-Cell Leukemia RS4; 11 Subcutaneous Xenograft Model
NOD/SCID mice, female, 9-10 weeks old (ages upon tumor cell grafting), body weight of 16.3-22.0 g, purchased from Beijing AniKeeper Biotech Co., Ltd.; production license number: SCXK (Jing) 2017-0006, and animal certification number: 11402400013155. Breeding environment: SPF grade. Mice were grafted subcutaneously on the right anterior dorsal side with 1×10^7 RS4;11 cells. The day of grafting was defined as day 0. When the mean tumor volume was 240 mm^3, the mice were randomly grouped according to the tumor size. The administration was performed as per Table 5 below.
Clinical symptoms observed during the experiment were recorded in the raw data. The calculation formula for tumor volume: Tumor volume (mm^3)=½×(a×b^2) (where a represents long diameter and b represents short diameter). The data were collected using StudyDirector™ software (version No. 3.1.399.19, supplier: Studylog System, Inc., S.San Francisco, CA, USA) in the experiment, including measurements of the long and short diameters of the tumor and weighing results of the animals. The raw data obtained from a balance and a vernier caliper were directly imported into the software, and any change in the data was recorded. Relative tumor proliferation rate (T/C %) refers to the percentage of the relative tumor volume or tumor weight of the treatment and control groups at a certain time point. The calculation formula is as follows:
T/C %=TRTV/CRTV×100% (TRTV: mean RTV for treatment group; CRTV: mean RTV for vehicle control group; RTV=Vt/V0, where V0 is the tumor volume of the animal upon grouping, and Vt is the tumor volume of the animal after treatment).
(T and C are the relative tumor volume (RTV) or tumor weight (TW) at a particular time point for the treatment and control groups, respectively).
All experimental results were expressed as mean tumor volume±SEM (standard error of mean). The relative tumor volume of the treatment group was compared with that of the control group for any significant difference by the independent sample T test. All data were analyzed using SPSS 18.0. p<0.05 was defined as a significant difference.

[3] = In vitro stability in mouse liver microsomes; type: in vitro ADME; details: 1 μM
Method: as §1, §2, §3

| SMILES | Human Residual content after 60 min (%) [1] [%] | AUC(0-inf) (Pharmacokinetics in rats) [ng·h/mL] | Cmax (Pharmacokinetics in rats) [ng/mL] | Tmax (Pharmacokinetics in rats) [h] | half-life (Pharmacokinetics in rats) [h] | AUC(0-t) (Pharmacokinetics in rats) [ng·h/mL] | MRT last (Pharmacokinetics in rats) [h] | IC50 (BCL-2/BAK) [nM] | T/C (%) ([2]; 25 mg/kg p.o. one dose) | TGI (%) ([2]; 25 mg/kg p.o. one dose) | Tumor volume (x ± S) ([2]; 25 mg/kg p.o. one dose) [mm^3] | Mouse Residual content after 60 min (%) [3] [%] | Relative tumor volume (x ± S) ([2]; 25 mg/kg p.o. one dose) | Relative tumor volume (x ± S) ([2]; 50 mg/kg p.o. one dose) | T/C (%) ([2]; 50 mg/kg p.o. one dose) | TGI (%) ([2]; 50 mg/kg p.o. one dose) | Tumor volume (x ± S) ([2]; 50 mg/kg p.o. one dose) [mm^3] |
| --- | --- | --- | --- | --- | --- | --- | --- | --- | --- | --- | --- | --- | --- | --- | --- | --- | --- |
| CC1(C)CCC(CN2CCN(c3ccc(C(=O)NS(=O)(=O)c4ccc(NC[C@H]5COCCO5)c([N+](=O)[O-])c4)c(Oc4cnc5[nH]ccc5c4)c3)CC2)=C(c2ccc(C(F)(F)F)cc2Cl)C1 [Compound 8-1] | 86.3 | 6560 ± 1800 | 739 ± 226 | 4 | 7.62 ± 2.78 | 5970 ± 2020 | 7.35 ± 0.45 | 2.8 | 29.8 | 70.2 | 600.39 ± 32.88 | 73.9 |  |  |  |  |  |
| CC1(C)CCC(CN2CCN(c3ccc(C(=O)NS(=O)(=O)c4ccc(NCC5CCOCC5)c([N+](=O)[O-])c4)c(Oc4cnc5[nH]ccc5c4)c3)CC2)=C(c2ccc(C(F)(F)F)cc2Cl)C1 [Compound 1-1, 4-(4-{[2-(2-chloro-4-trifluoromethylphenyl)-4,4-dimethylcyclohex-1-enyl]methyl}-piperazin-1-yl)-N-({3-nitro-4-[(tetrahydro-2H-pyran-4-ylmethyl)amino]phenyl}sulfonyl)-2-(1H-pyrrolo[2,3-b]pyridin-5-yloxy)-benzamide] | 70.8 | 4460 ± 1340 | 378 ± 83.5 | 4 | 8.73 ± 0.31 | 3700 ± 848 | 8.95 ± 4.99 | 2.7 | 51.5 | 48.5 | 1024.97 ± 160.59 | 78.9 | 4.39 ± 0.83 | 1.92 ± 0.36 | 22.5 | 77.5 | 465.78 ± 95.68 |
